Data reported in patent US11311542B2, “Inhibitors of cyclin dependent kinase 7 (CDK7)” (Syros Pharmaceuticals, Inc., priority 2018, dated 2022).
Read-outs that look alike come from different tables or passages of the source.

Assays:
[1] = target: CDK2/Cyclin E1 complex (Homo sapiens, UniProt P24941); assay: CDK2 kinase inhibition assay (Caliper/LabChip EZ Reader)
Method: (§1) Compounds described herein were assayed for inhibition of CDK7, CDK9, CDK12, and CDK2 activity at Biortus Biosciences (Jiangyin, Jiangsu Province, P.R. of China) using kinase assays for each CDK developed with a Caliper/LabChip EZ Reader (Perkin Elmer, Waltham, Mass.).
(§2) Furthermore, the CDK9 inhibition assay used CDK9/Cyclin T1 complex (8 nM) and “5-FAM-CDK9tide” peptide substrate (2 μM, synthesized fluorophore-labeled peptide with the following sequence: 5-FAM-GSRTPMY-NH2 (SEQ ID NO:2) where 5-FAM is defined above and NH2 signifies a C-terminal amide) with 10 mM MgCl2 in the buffer composition listed above. The CDK12 inhibition assay used CDK12 (aa686-1082)/Cyclin K complex (50 nM) and “5-FAM-CDK9tide” (2 μM) as defined above, with 2 mM MgCl2 in the buffer composition above. Additionally, the CDK2 inhibition assay used CDK2/Cyclin E1 complex (0.5 nM) and “5-FAM-CDK7tide” (2 μM; defined above) with 2 mM MgCl2 in the buffer composition above.
(§3) The incubation period at 27° C. for each CDK inhibition assay was chosen such that the fraction of phosphorylated peptide product produced in each assay, relative to the total peptide concentration, was approximately 20% (±5%) for the uninhibited kinase (35 min. for CDK7, 35 min. for CDK2, 3 hr. for CDK12, 15 min. for CDK9).

[2] = system: COV318 cells; assay: Inhibition of cell proliferation (CyQUANT Direct), COV318; assay type: cell-based, human; settings: COV318, 72-hour
[3] = system: HCC70 cells; assay: Inhibition of cell proliferation (CyQUANT Direct), HCC70; assay type: cell-based, human; settings: HCC70, 72-hour
[4] = system: MB453 cells; assay: Inhibition of cell proliferation (CyQUANT Direct), MB453; assay type: cell-based, human; settings: MB453, 72-hour
[5] = system: COV504 cells; assay: Inhibition of cell proliferation (CyQUANT Direct), COV504; assay type: cell-based, human; settings: COV504, 72-hour
[6] = target: CDK9/Cyclin T1 complex (Homo sapiens, UniProt P50750); assay: CDK9 kinase inhibition assay (Caliper/LabChip EZ Reader)
Sequence of CDK9/Cyclin T1 complex (P50750 whole entry, the tested form may be a part): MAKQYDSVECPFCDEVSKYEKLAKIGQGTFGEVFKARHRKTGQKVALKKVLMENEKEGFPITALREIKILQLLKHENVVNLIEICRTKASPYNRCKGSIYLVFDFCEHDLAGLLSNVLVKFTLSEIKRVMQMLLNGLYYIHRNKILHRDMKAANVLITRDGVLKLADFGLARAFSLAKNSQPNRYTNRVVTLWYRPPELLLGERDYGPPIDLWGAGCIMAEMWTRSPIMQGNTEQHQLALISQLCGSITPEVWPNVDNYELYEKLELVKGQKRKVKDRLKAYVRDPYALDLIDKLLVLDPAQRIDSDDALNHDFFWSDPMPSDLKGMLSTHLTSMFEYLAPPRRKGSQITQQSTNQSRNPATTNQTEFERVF
Sequence of CDK9/Cyclin T1 complex (O60563 whole entry partner, the tested form may be a part): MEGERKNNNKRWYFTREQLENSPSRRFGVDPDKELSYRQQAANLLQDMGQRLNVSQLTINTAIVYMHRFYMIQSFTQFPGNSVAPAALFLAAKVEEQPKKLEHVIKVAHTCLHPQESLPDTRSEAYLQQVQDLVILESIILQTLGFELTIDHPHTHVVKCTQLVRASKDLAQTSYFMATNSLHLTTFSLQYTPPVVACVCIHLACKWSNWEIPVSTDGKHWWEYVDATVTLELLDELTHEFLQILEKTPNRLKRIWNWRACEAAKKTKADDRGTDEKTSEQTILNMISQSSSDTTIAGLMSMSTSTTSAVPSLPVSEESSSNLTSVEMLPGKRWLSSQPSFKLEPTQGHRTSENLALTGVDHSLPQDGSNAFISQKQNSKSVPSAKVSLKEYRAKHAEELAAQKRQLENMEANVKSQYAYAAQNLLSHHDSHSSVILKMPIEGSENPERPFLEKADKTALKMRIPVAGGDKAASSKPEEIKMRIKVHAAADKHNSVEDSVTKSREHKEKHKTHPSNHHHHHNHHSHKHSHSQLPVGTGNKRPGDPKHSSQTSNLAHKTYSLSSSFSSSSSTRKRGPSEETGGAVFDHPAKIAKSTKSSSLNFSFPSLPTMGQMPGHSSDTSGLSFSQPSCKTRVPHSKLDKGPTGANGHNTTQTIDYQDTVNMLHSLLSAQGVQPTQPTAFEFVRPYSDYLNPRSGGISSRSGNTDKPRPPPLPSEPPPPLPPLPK
Method: as §1, §2, §3

[7] = target: CDK12 (aa686-1082)/Cyclin K complex (Homo sapiens, UniProt Q9NYV4); assay: CDK12 kinase inhibition assay (Caliper/LabChip EZ Reader)
Sequence of CDK12 (aa686-1082)/Cyclin K complex (Q9NYV4 686-1082): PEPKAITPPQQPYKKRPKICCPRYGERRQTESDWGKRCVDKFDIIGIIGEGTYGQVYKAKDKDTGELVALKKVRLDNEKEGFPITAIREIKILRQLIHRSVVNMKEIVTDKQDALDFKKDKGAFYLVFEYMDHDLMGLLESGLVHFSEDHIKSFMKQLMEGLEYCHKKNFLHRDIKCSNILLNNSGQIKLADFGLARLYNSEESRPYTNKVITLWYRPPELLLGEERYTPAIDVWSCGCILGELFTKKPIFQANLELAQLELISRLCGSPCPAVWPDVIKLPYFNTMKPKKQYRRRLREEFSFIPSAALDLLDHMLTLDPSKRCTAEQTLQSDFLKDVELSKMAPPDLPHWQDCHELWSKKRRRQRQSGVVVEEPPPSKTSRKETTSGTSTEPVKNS
Sequence of CDK12 (aa686-1082)/Cyclin K complex (O75909 whole entry partner, the tested form may be a part): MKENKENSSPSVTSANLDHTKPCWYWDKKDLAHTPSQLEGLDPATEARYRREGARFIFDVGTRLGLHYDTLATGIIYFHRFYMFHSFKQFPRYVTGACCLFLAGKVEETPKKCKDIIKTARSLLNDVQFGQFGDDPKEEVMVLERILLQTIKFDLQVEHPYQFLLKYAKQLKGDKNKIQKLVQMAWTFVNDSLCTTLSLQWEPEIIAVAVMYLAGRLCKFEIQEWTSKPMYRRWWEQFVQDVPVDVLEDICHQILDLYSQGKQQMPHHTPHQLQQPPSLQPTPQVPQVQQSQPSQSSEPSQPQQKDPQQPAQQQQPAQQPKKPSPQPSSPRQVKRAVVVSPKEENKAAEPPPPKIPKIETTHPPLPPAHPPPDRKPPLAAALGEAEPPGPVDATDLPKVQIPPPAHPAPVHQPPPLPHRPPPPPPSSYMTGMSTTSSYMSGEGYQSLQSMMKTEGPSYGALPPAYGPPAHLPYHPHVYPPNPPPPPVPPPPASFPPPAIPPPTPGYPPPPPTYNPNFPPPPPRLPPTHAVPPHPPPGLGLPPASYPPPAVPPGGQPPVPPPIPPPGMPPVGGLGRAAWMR
Method: as §1, §2, §3

[8] = target: CDK7/Cyclin H/MAT1 complex (Homo sapiens, UniProt P50613); assay: CDK7 kinase inhibition assay (Caliper/LabChip EZ Reader)
Sequence of CDK7/Cyclin H/MAT1 complex (P50613 whole entry): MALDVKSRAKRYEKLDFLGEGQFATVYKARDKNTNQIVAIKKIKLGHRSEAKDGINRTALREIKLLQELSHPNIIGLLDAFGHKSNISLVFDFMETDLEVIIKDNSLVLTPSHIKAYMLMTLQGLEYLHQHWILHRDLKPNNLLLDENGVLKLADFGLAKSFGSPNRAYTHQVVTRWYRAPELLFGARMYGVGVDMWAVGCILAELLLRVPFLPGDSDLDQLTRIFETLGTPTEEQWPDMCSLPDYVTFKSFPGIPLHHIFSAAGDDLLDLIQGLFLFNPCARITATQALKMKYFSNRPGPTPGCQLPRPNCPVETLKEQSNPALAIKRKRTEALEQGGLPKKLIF
Sequence of CDK7/Cyclin H/MAT1 complex (P51946 whole entry partner): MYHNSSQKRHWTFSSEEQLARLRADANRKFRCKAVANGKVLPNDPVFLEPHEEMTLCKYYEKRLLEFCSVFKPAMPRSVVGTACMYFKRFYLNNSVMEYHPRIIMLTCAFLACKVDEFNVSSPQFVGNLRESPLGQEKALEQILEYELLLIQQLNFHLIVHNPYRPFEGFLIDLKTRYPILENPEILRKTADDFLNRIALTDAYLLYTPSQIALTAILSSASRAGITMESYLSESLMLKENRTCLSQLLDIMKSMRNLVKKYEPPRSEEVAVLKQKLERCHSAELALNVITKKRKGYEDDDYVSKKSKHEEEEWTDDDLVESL
Sequence of CDK7/Cyclin H/MAT1 complex (P51948 whole entry partner): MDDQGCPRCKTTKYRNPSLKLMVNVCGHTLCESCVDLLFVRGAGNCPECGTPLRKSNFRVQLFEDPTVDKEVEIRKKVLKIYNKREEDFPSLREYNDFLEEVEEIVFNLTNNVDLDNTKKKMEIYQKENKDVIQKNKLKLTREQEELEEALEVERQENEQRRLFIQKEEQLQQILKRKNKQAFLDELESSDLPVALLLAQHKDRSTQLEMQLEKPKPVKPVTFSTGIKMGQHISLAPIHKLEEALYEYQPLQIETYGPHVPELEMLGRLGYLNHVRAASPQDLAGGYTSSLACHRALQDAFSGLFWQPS
Method: as §1, §2, §3

[9] = read-out: CDK2 IC50, CDK2/Cyclin E1 0.5 nM, ATP 2 mM, 35 min at 27° C.
[10] = read-out: CDK9 IC50, CDK9/Cyclin T1 8 nM, ATP 2 mM, 15 min at 27° C.
[11] = read-out: CDK12 IC50, CDK12 (aa686-1082)/Cyclin K 50 nM, ATP 2 mM, 3 hr at 27° C.
[12] = read-out: CDK7 IC50, CDK7/Cyclin H/MAT1 6 nM, ATP 2 mM, 35 min at 27° C.

| Molecule | IC50 [1] [nM] | IC50 ([2]; Homo sapiens) [nM] | IC50 ([3]; Homo sapiens) [nM] | IC50 ([4]; Homo sapiens) [nM] | IC50 ([5]; Homo sapiens) [nM] | IC50 [6] [nM] | IC50 [7] [nM] | IC50 [8] [nM] | IC50 [1, 9] [nM] | IC50 [2] [nM] | IC50 [3] [nM] | IC50 [4] [nM] | IC50 [5] [nM] | IC50 [6, 10] [nM] | IC50 [7, 11] [nM] | IC50 [8, 12] [nM] |
| --- | --- | --- | --- | --- | --- | --- | --- | --- | --- | --- | --- | --- | --- | --- | --- | --- |
| Cc1nnc(-c2ccc3c(-c4nc(N[C@@H]5CC[C@@H](C)NC5)ncc4C(F)(F)F)c[nH]c3n2)s1 [Compound 158, N-[(3R,6R)-6-methyl-3-piperidyl]-4-[6-(5-methyl-1,3,4-thiadiazol-2-yl)-1H-pyrrolo[2,3-b]pyridin-3-yl]-5-(trifluoromethyl)pyrimidin-2-amine] | > 500 | 100 to 500 | < 100 | < 100 | < 100 | > 500 | > 500 | < 30 |  |  |  |  |  |  |  |  |
| Cc1nsc(-c2ccc3c(-c4nc(N[C@@H]5CC[C@@H](C)NC5)ncc4C(F)(F)F)c[nH]c3n2)n1 [Compound 159, N-[(3R,6R)-6-methyl-3-piperidyl]-4-[6-(3-methyl-1,2,4-thiadiazol-5-yl)-1H-pyrrolo[2,3-b]pyridin-3-yl]-5-(trifluoromethyl)pyrimidin-2-amine] | > 500 | > 1000 | < 100 | < 100 | < 100 | > 500 | > 500 | < 30 |  |  |  |  |  |  |  |  |
| Cc1nocc1-c1ccc2c(-c3nc(N[C@H]4CCC(C)(C)NC4)ncc3C(F)(F)F)n[nH]c2n1 [Compound 160, (S)—N-(6,6-dimethylpiperidin-3-yl)-4-(6-(3-methylisoxazol-4-yl)-1H-pyrazolo[3,4-b]pyridin-3-yl)-5-(trifluoromethyl)pyrimidin-2-amine] | > 500 | > 1000 | > 1000 | 100 to 500 | 100 to 500 | > 500 | > 500 | < 30 |  |  |  |  |  |  |  |  |
| Cc1ncoc1-c1ccc2c(-c3nc(N[C@H]4CCCNC4)ncc3C(F)(F)F)c[nH]c2n1 [Compound 161, 4-[6-(4-methyloxazol-5-yl)-1H-pyrrolo[2,3-b]pyridin-3-yl]-N-[(3S)-3-piperidyl]-5-(trifluoromethyl)pyrimidin-2-amine] | > 500 | 100 to 500 | < 100 | < 100 | < 100 | > 500 | > 500 | < 30 |  |  |  |  |  |  |  |  |
| Cc1nc(-c2ccc3c(-c4nc(N[C@H]5CC[C@H](C)NC5)ncc4C(F)(F)F)c[nH]c3n2)no1 [Compound 162, 4-[6-(5-methyl-1,2,4-oxadiazol-3-yl)-1H-pyrrolo[2,3-b]pyridin-3-yl]-N-[(3S,6S)-6-methyl-3-piperidyl]-5-(trifluoromethyl)pyrimidin-2-amine] | > 500 | > 1000 | 100 to 500 | 500 to 1000 | < 100 | > 500 | > 500 | < 30 |  |  |  |  |  |  |  |  |
| Cc1nc(-c2ccc3c(-c4nc(N[C@@H]5CC[C@@H](C)NC5)ncc4C(F)(F)F)c[nH]c3n2)no1 [Compound 163, 4-[6-(5-methyl-1,2,4-oxadiazol-3-yl)-1H-pyrrolo[2,3-b]pyridin-3-yl]-N-[(3R, 6R)-6-methyl-3-piperidyl]-5-(trifluoromethyl)pyrimidin-2-amine] | > 500 | > 1000 | < 100 | < 100 | < 100 | > 500 | > 500 | < 30 |  |  |  |  |  |  |  |  |
| C[C@@H]1CC[C@@H](Nc2ncc(C(F)(F)F)c(-c3c[nH]c4nc(-c5nnnn5C)ccc34)n2)CN1 [Compound 164, N-[(3R, 6R)-6-methyl-3-piperidyl]-4-[6-(1-methyltetrazol-5-yl)-1H-pyrrolo[2,3-b]pyridin-3-yl]-5-(trifluoromethyl)pyrimidin-2-amine] | > 500 | 500 to 1000 | 100 to 500 | < 100 | < 100 | > 500 | > 500 | < 30 |  |  |  |  |  |  |  |  |
| C[C@H]1CC[C@H](Nc2ncc(C(F)(F)F)c(-c3c[nH]c4nc(-c5nnnn5C)ccc34)n2)CN1 [Compound 165, N-[(3S,6S)-6-methyl-3-piperidyl]-4-[6-(1-methyltetrazol-5-yl)-1H-pyrrolo[2,3-b]pyridin-3-yl]-5-(trifluoromethyl)pyrimidin-2-amine] | > 500 | > 1000 | > 1000 | 500 to 1000 | 500 to 1000 | > 500 | > 500 | 30 to 100 |  |  |  |  |  |  |  |  |
| Cc1nc(-c2ccc3c(-c4nc(N[C@H]5CC[C@H](C)NC5)ncc4C(F)(F)F)n[nH]c3n2)no1 [Compound 167, 4-[6-(5-methyl-1,2,4-oxadiazol-3-yl)-1H-pyrazolo[3,4-b]pyridin-3-yl]-N-[(3S,6S)-6-methyl-3-piperidyl]-5-(trifluoromethyl)pyrimidin-2-amine] | > 500 | 100 to 500 | < 100 | 100 to 500 | < 100 | > 500 | > 500 | < 30 |  |  |  |  |  |  |  |  |
| Cc1nc(-c2ccc3c(-c4nc(N[C@H]5CCCNC5)ncc4C(F)(F)F)n[nH]c3n2)no1 [Compound 168, 4-[6-(5-methyl-1,2,4-oxadiazol-3-yl)-1H-pyrazolo[3,4-b]pyridin-3-yl]-N-[(3S)-3-piperidyl]-5-(trifluoromethyl)pyrimidin-2-amine] | > 500 | < 100 | < 100 | < 100 | < 100 | > 500 | > 500 | < 30 |  |  |  |  |  |  |  |  |
| (3S)-tert-butyl 3-((4-(6-(3,5-dimethylisoxazol-4-yl)-5-fluoro-1H-pyrrolo[2,3-b]pyridin-3-yl)-5-(trifluoromethyl)pyrimidin-2-yl)amino)piperidine-1-carboxylate [Compound 138] |  |  |  |  |  |  |  |  | > 500 | < 100 | < 100 | < 100 | < 100 | > 500 | > 500 | < 30 |
| (3S,4S)-tert-butyl 3-((4-(6-(3,5-dimethylisoxazol-4-yl)-1H-indol-3-yl)-5-(trifluoromethyl)pyrimidin-2-yl)amino)-4-methylpiperidine-1-carboxylate [Compound 135] |  |  |  |  |  |  |  |  | > 500 | > 1000 | 100 to 500 | < 100 | < 100 | > 500 | > 500 | 30 to 100 |
| (S)-tert-butyl 3-((4-(6-(3,5-dimethylisothiazol-4-yl)-1H-pyrrolo[2,3-b]pyridin-3-yl)-5-(trifluoromethyl)pyrimidin-2-yl)amino)piperidine-1-carboxylate [Compound 166] |  |  |  |  |  |  |  |  | > 500 | < 100 | < 100 | < 100 | < 100 | > 500 | > 500 | < 30 |
